Test results: patent US4174406A, “Terpenylaminoalkanol fish toxicants” (priority 1977, dated 1979)
In brackets after ≈: the same amount, converted by molar mass.

Assays:
Brown trout = assay: Laboratory fish toxicity test (Table 1); type: in vivo, Salmo trutta; conditions: tech, 12 C, soft water
Protocol: (§1) Fish were obtained from state and federal hatcheries and maintained prior to testing by a trained fish culturist. Fish of total length 2-5 cm were used in laboratory tests while for outdoor tests small fish (4-6 cm in length) and larger carp and buffalo (Ictiobus cyprinellus) were used.
(§2) In all tests 10 fish of each were exposed to selective concentrations of the toxicant. Mortalities were observed and recorded at 1,2 and 6 hours on the first day and once daily thereafter, during 96 hour exposure.
(§3) Laboratory tests were also conducted in soft water 12° C. wherein the toxicant was evaluated against fifteen species of fish including both cold and warm water varieties. In Table 1, the LC 50 toxicity values for N-(2-hydroxyethyl) digeranylamine is shown for various species. LC50 is defined as the amount (mg/liter) of toxicant required to kill 50 percent of the particular fish species at 95% confidence interval.

Carp [1] = assay: Laboratory fish toxicity test (Table 1); type: in vivo, Cyprinus carpio; conditions: tech, 12 C, soft water
Protocol: as §1, §2, §3

Banded killifish = assay: Laboratory fish toxicity test (Table 1); type: in vivo, Fundulus diaphanus; conditions: tech, 12 C, soft water
Protocol: as §1, §2, §3

Aquatic olgochaete = assay: Static bioassay in invertebrates (Table 2); type: in vivo; conditions: Tubifex tubifex, tech, 17 C, limed spring water 22-36 mg/l hardness
Protocol: (§4) The effect of the various toxicants on common invertebrate species was determined in a static test conducted 17° C. The invertebrates tested were collected from natural populations or purchased from commercial suppliers. They were held in soft water in fiberglass tanks in the laboratory or in outdoor plastic swimming pools. Mortality was observed during holding, and only healthy organisms were used for the toxicity tests. At least 10 organisms of nine species were exposed to each concentration in static tests.

Seed shrimp or ostracod = assay: Static bioassay in invertebrates (Table 2); type: in vivo; conditions: tech, 17 C, limed spring water 22-36 mg/l hardness
Protocol: as §4

Snail (Physa sp.) = assay: Static bioassay in invertebrates (Table 2); type: in vivo; conditions: tech, 17 C, limed spring water 22-36 mg/l hardness
Protocol: as §4

Snail (Pleurecera sp.) = assay: Static bioassay in invertebrates (Table 2); type: in vivo; conditions: tech, 17 C, limed spring water 22-36 mg/l hardness
Protocol: as §4

Water flea = assay: Static bioassay in invertebrates (Table 2); type: in vivo; conditions: Daphnia magna, tech, 17 C, limed spring water 22-36 mg/l hardness
Protocol: as §4

Fingernail clam = assay: Static bioassay in invertebrates (Table 2); type: in vivo, Sphaerium sp.; conditions: 96 hours, tech, 17 C, limed spring water 22-36 mg/l hardness
Protocol: as §4

Carp [2] = assay: Outdoor plastic pool test (Table 3); type: in vivo, Cyprinus carpio; conditions: for % kill: 50% formulation (hydrochloride salt); for survival (in words): larger carp (19 cm)
Protocol: (§5) N-(2-hydroxyethyl) digeranylamine was tested as a selective fish toxicant in outdoor pools stocked with various fish species and lined with black plastic using 50% water soluble formulations (hydrochloride salt). The formulation was added to each of four pools of 4,000-liter capacity at concentrations of 0.10, 0.15, 0.20, and 0.30 mg/liter. Another pool containing the same number, size, and species of fish served as a control. The test water had algal blooms, a pH of about 8.5, and a total hardness of about 200 mg/liter as CaCo3. The temperature was cool enough (15°-16°C.) to permit the use of trout.
as §1, §2
(§6) Outdoor pool tests were conducted using 50% formulation of the toxicant N-(2-hydroxyethyl) digeranylamine as indicated in Example 8. […] If selective control of white sucker and common carp is desired in an environment which includes rainbow trout, one should employ an effective concentration of toxicant which is at least as great as 0.05 mg/liter but less than 0.1 mg/liter. As a practical fishery practice in the northern United States and Canada, rainbow trout are not usually stocked in bodies of water containing the common carp species; the habitat conditions including water temperature and available oxygen of these species are usually quite different. Common carp and rainbow trout have quite different oxygen and temperature requirements and these differences generally preclude both species cohabitating under natural conditions. In this case the useful range to control common carp and white sucker can be much broader, i.e. 0.1 to 0.3 mg/liter.

Fathead minnow = assay: Outdoor plastic pool test (Table 3); type: in vivo, Pimephales promelas; conditions: for % kill: 96 hour, 50% formulation (hydrochloride salt)
Protocol: as §5, §1, §2, §6

White sucker = assay: Outdoor plastic pool test (Table 3); type: in vivo, Catostomus commersoni; conditions: for % kill: 96 hour, 50% formulation (hydrochloride salt); for survival (in words): white suckers
Protocol: as §5, §1, §2, §6

Largemouth buffalo = assay: Outdoor plastic pool test (Table 3); type: in vivo, Ictibous cyprinellus; conditions: 96 hour, 50% formulation (hydrochloride salt)
Protocol: as §5, §1, §2, §6

Green sunfish = assay: Outdoor plastic pool test (Table 3); type: in vivo, Lepomis cyanellus; conditions: for % kill: 96 hour, 50% formulation (hydrochloride salt)
Protocol: as §5, §1, §2, §6

Bluegill = assay: Outdoor plastic pool test (Table 3); type: in vivo, Lepomis macrochirus; conditions: for % kill: 96 hour, 50% formulation (hydrochloride salt)
Protocol: as §5, §1, §2, §6

## CC(C)=CCC/C(C)=C/CN(C/C=C(\C)CCC=C(C)C)CCO [N-(2-hydroxyethyl) digeranylamine]
Brown trout; 3 hours
  LC50: 0.0955 µg/mL (≈ 0.286 µM)
Brown trout; 6 hours
  LC50: 0.0742 µg/mL (≈ 0.222 µM)
Brown trout; 24 hours
  LC50: 0.0700 µg/mL (≈ 0.21 µM)
Brown trout; 96 hours
  LC50: 0.0647 µg/mL (≈ 0.194 µM)
Carp [1]; 6 hours
  LC50: 1.34 µg/mL (≈ 4.02 µM)
Carp [1]; 24 hours
  LC50: 0.0718 µg/mL (≈ 0.215 µM)
Carp [1]; 96 hours, 5760 min
  LC50: 0.050 µg/mL (≈ 0.15 µM)
Carp [1]; 96 hours, listed as N-(2-hydroxyethyl) Digeranylamine, 5760 min
  LC50: 0.0507 µg/mL (≈ 0.152 µM)
Banded killifish; 3 hours
  LC50: 7.20 µg/mL (≈ 21.6 µM)
Banded killifish; 6 hours
  LC50: 2.77 µg/mL (≈ 8.3 µM)
Banded killifish; 24 hours
  LC50: 1.32 µg/mL (≈ 3.96 µM)
Banded killifish; 96 hours
  LC50: 0.792 µg/mL (≈ 2.37 µM)
Aquatic olgochaete; 1 hour
  LC50: 4.3 µg/mL (≈ 12.9 µM)
Aquatic olgochaete; 3 hour
  LC50: 2.64 µg/mL (≈ 7.91 µM)
Aquatic olgochaete; 6 hours
  LC50: 2.35 µg/mL (≈ 7.05 µM)
Aquatic olgochaete; 28 hours
  LC50: 0.28 µg/mL (≈ 0.839 µM)
Aquatic olgochaete; 96 hours
  LC50: 0.054 µg/mL (≈ 0.162 µM)
Seed shrimp or ostracod; 6 hours
  LC50: 3 µg/mL (≈ 8.99 µM)
Seed shrimp or ostracod; 28 hours
  LC50: 1 µg/mL (≈ 3 µM)
Seed shrimp or ostracod; 96 hours
  LC50: 0.32 µg/mL (≈ 0.959 µM)
Snail (Physa sp.); 1 hour
  LC50: 6.30 µg/mL (≈ 18.9 µM)
Snail (Physa sp.); 3 hour
  LC50: 2.25 µg/mL (≈ 6.75 µM)
Snail (Physa sp.); 6 hours
  LC50: 0.945 µg/mL (≈ 2.83 µM)
Snail (Physa sp.); 28 hours
  LC50: 0.580 µg/mL (≈ 1.74 µM)
Snail (Physa sp.); 96 hours
  LC50: 0.460 µg/mL (≈ 1.38 µM)
Snail (Pleurecera sp.); 28 hours
  LC50: 10.3 µg/mL (≈ 30.9 µM)
Snail (Pleurecera sp.); 96 hours
  LC50: 2.68 µg/mL (≈ 8.03 µM)
Water flea; 1 hour
  LC50: 8 µg/mL (≈ 24 µM)
Water flea; 3 hour
  LC50: 3.95 µg/mL (≈ 11.8 µM)
Water flea; 6 hours
  LC50: 3 µg/mL (≈ 8.99 µM)
Water flea; 28 hours
  LC50: 0.8 µg/mL (≈ 2.4 µM)
Water flea; 96 hours
  LC50: 0.16 µg/mL (≈ 0.48 µM)
Fingernail clam
  LC50: 11.5 µg/mL (≈ 34.5 µM)
Carp [2]; carp (large), 0.10 mg/l, 96 hour
  % kill: 27%
Carp [2]; carp (large), 0.15 mg/l, 96 hour
  % kill: 66%
Carp [2]; carp (large), 0.20 mg/l, 96 hour
  % kill: 100%
Carp [2]; carp (large), 0.30 mg/l, 96 hour
  % kill: 100%
Carp [2]; carp (small), 0.10 mg/l, 96 hour
  % kill: 100%
Carp [2]; carp (small), 0.15 mg/l, 96 hour
  % kill: 100%
Carp [2]; carp (small), 0.20 mg/l, 96 hour
  % kill: 100%
Carp [2]; carp (small), 0.30 mg/l, 96 hour
  % kill: 100%
Carp [2]; 0.2 mg/liter or higher
  survival (in words): none survived
Carp [2]; 0.10 and 0.15 mg/liter
  survival (in words): Some white suckers and larger carp (19 cm) survived
Carp [2]; small common carp (4-6 cm), above 0.10 mg/l, 96 hour
  kill (in words): completely eliminated at all concentrations above 0.10 mg/l
Fathead minnow; 0.10 mg/l
  % kill: 0%
Fathead minnow; 0.15 mg/l
  % kill: 10%
Fathead minnow; 0.20 mg/l
  % kill: 10%
Fathead minnow; 0.30 mg/l
  % kill: 80%
Fathead minnow; fathead minnows, 0.30 mg/liter and lower, 50% formulation
  survival (in words): died at 0.30 mg/liter of toxicant, but all survived lower concentrations
White sucker; 0.10 mg/l
  % kill: 20%
White sucker; 0.15 mg/l
  % kill: 70%
White sucker; 0.20 mg/l
  % kill: 100%
White sucker; 0.30 mg/l
  % kill: 100%
White sucker; 0.2 mg/liter or higher
  survival (in words): none survived
White sucker; 0.10 and 0.15 mg/liter
  survival (in words): Some white suckers and larger carp (19 cm) survived
Largemouth buffalo; 0.10 mg/l
  % kill: 0%
Largemouth buffalo; 0.15 mg/l
  % kill: 20%
Largemouth buffalo; 0.20 mg/l
  % kill: 20%
Largemouth buffalo; 0.30 mg/l
  % kill: 100%
Green sunfish; 0.10 mg/l
  % kill: 0%
Green sunfish; 0.15 mg/l
  % kill: 0%
Green sunfish; 0.20 mg/l
  % kill: 0%
Green sunfish; 0.30 mg/l
  % kill: 0%
Green sunfish; green sunfish, 0.3 mg/liter, 50% formulation
  survival (in words): complete survival
Bluegill; 0.10 mg/l
  % kill: 0%
Bluegill; 0.15 mg/l
  % kill: 0%
Bluegill; 0.20 mg/l
  % kill: 0%
Bluegill; 0.30 mg/l
  % kill: 0%
Bluegill; bluegill, 0.3 mg/liter, 50% formulation
  survival (in words): complete survival
